# Experimental data from patent US6559289B1, “Use of growth hormone or analogues thereof for the treatment of mammals with familial hypercholesterolemia” (Salhtech I Goteborg AB, priority 1998, dated 2003).
# Entries after “also recorded” stand apart in the source; their conditions may differ.
# What was measured:
# LDLRKO mice [1] = assay: Cholestyramine, atorvastatin and GH alone and in combination: plasma cholesterol and triglycerides; assay type: in vivo; settings: 6 days of treatment
# C57BL/6J mice [2] = assay: GH infusion for six days: total plasma cholesterol, triglycerides and total hepatic cholesterol; assay type: in vivo; settings: GH 1 mg/kg/d infusion
# Excerpt: (§1) The studies were approved by the Institutional Animal Care and Use Committee, Sweden. Altogether 75 male LDLRKO and 45 C57 BL/6J mice were purchased from Bommice, Denmark. Animals were housed under standardized conditions in groups of ten. The mice had free access to water and chow; the light cycle hours were between 6 a.m. and 6:00 p.m. At the start of the experiment, osmotic mini pumps containing GH were implanted subcutaneously under light ether anesthesia. Non-GH treated animals were sham-operated. Recombinant human GH (Genotropin®), purchased from Pharmacia & Upjohn, was infused at a rate of 1.0 mg/kg per day. After six days of infusion, animals where anesthetized with ether, and blood was collected from the eye. The mice where thereafter killed by cervical dislocation. The livers were immediately removed and when indicated, 1 g of liver was taken for subsequent preparation of microsomes for assay of enzyme activity as described below. The remaining liver was immediately frozen in liquid nitrogen and stored at −70° C.
# (§2) The total hepatic cholesterol was determined, following extraction and subsequent drying under nitrogen from liver samples, as described (Rudling M. J. Lipid Res. 33: 493-50 1992). Total hepatic and plasma cholesterol and plasma triglycerides were assayed using commercial available methods (Boehringer-Mannheim, Mannheim, Germany).
# (§3) Infusion of GH to C57BL/6J and LDLRKO mice. Two sets of ten animals of each strain were continuously infused at a rate of 1 mg/kg/d. After six days of treatment, animals were killed and plasma and livers were collected.
# (§4) To confirm this surprising finding of a plasma cholesterol lowering effect of GH in LDLR deficient animals with pronounced hypercholesterolemia, the previous experiment was repeated. In addition, we wanted to also determine the enzymatic activities of 3-hydroxy-3-methyl-glutaryl coenzyme A, (HMG CoA) reductase, and cholesterol 7α hydroxylase, (C7αOH), being the rate limiting steps in the synthesis of cholesterol and bile acids, respectively. Animals received the same dose of GH that was infused for six days.
# (§5) FIG. 1 is a graph that depicts total plasma cholesterol, triglycerides and total hepatic cholesterol in normal (C57 BL) and LDLRKO (KO) mice±GH (1 mg/kg/day) for 6 days. Each group consisted of 10 animals. Bars indicate SEM.
# (§6) Each group consisted of 10 animals. Bars indicate SEM.
# LDLRKO mice [3] = assay: as above; assay type: in vivo
# Excerpt: as §1, §2, §3, §4, §5, §6
# C57BL/6J mice [4] = assay: FPLC size-fractionation of plasma lipoproteins after GH infusion; assay type: in vivo; settings: pooled plasma, first experiment
# Experimental: (§7) Equal volumes of plasma from each animal were pooled (1-2 mL) and the density was adjusted to 1.21 g/mL with solid KBr. After ultracentrifugation at 10^5 g for 48 h, the supernatant was removed and adjusted with 0.15 M NaCl, 0.01% etylene diamine tetraacetic acid, (EDTA), 0.02% sodium azide, pH 7.3. An aliquot of this solution was injected on a 54×1.8 cm superose 6B column after filtration through a Millipore […] HA filter, 2-mL fractions were collected.
# (§8) FIGS. 2 and 3 show the lipoprotein patterns in the four groups of animals described in legend to FIG. 1. Equal volumes of plasma from each animal were pooled and subjected to ultracentrifugation at density 1.21. The supernatant was thereafter separated on a Superose 6 column and fractionated.
# LDLRKO mice [5] = assay: as above; assay type: in vivo
# Experimental: as §7, §8
# LDL receptors = assay: Ligand blot assay of hepatic LDL-receptors after GH treatment; assay type: in vivo; settings: C57BL/6J mice, pooled livers
# Experimental: Ligand blot assay of LDL-receptors was performed using ^125I-labeled rabbit β-migrating very low density lipoprotein (VLDL), as described previously (Rudling et al 1992. PNAS 89; 6983-6987). Membrane proteins were separated by SDS-PAGE (6% poly-acrylamide). After electrotransfer of proteins to nitrocellulose filters and subsequent incubation ^125I-β-VLDL filters were exposed onto DuPont X-ray film at −70° C.
# The absence of LDL receptors in LDLRKO animals was confirmed by ligand blot of hepatic membranes obtained from pooled livers from each animal group, using β-VLDL as ligand (not shown). The expression of LDL receptors in C57BL/6J mice was not altered by GH treatment.
# [6] = system: cholesterol 7α hydroxylase (C7αOH); assay: Enzymatic activity of C7αOH in hepatic microsomes after GH infusion; assay type: in vivo, mice; settings: for increase of C7αOH activity: GH 1 mg/kg/day, six days, hepatic microsomes
# Excerpt: as §1
# (§9) Hepatic microsomes were prepared by differential ultracentrifugation of liver homogenates in the absence of fluoride as previously described (Angelin et al 1984, J Lipid Res. 25; 1159-1166, Einarsson et al. 1986, J. Lipid Res. 27; 82-88, Einarsson et al. 1989, J. Lipid Res. 30; 739-746). Microsomal HMG CoA reductase was assayed from the conversion of [^14C] HMG CoA to mevalonate, and expressed as picomoles formed per mg protein per min. The activity of C7αOH was determined from the formation of 7α-hydroxycholesterol (picomoles/mg protein/min) from endogenous microsomal cholesterol by the use of isotope dilution-mass spectrometry as described in detail. All enzyme assays were carried out in duplicate.
# (§10) The means and standard error of means from three separate pools of all animals are shown.
# HMG CoA reductase = assay: Enzymatic activity of HMG CoA reductase in hepatic microsomes after GH infusion; assay type: in vivo, mice; settings: for increase of HMG CoA reductase activity: GH 1 mg/kg/day, six days, hepatic microsomes
# Excerpt: as §1, §9, §10
# C7αOH mRNA = C7αOH mRNA levels by solution hybridization after GH infusion; assay type: in vivo, mice; settings: GH treatment, liver
# Experimental: (§11) Total nucleic acids were extracted from a sample of liver from each individual and incubated with the respective complementary radio-labeled cRNA probe.
# HMG CoA reductase mRNA = HMG CoA reductase mRNA levels by solution hybridization after GH infusion; assay type: in vivo, mice; settings: liver
# Experimental: as §11
# [7] = LDLRKO mice, GH 1 mg/kg/d infusion, six days
# [8] = repeated experiment, same GH dose, six days (FIG. 4)
substance,measurement,setting,value
cholestyramine [reference compound],effect on plasma cholesterol (in words),LDLRKO mice [1]; drug alone,no effects
"GH: Recombinant human GH (Genotropin), purchased from Pharmacia & Upjohn, infused at 1.0 mg/kg per day",total plasma cholesterol,C57BL/6J mice [2]; C57BL/6J (normal) mice,no significant effect; also recorded: no reduction
same,total plasma triglycerides,C57BL/6J mice [2]; C57BL/6J mice,unaltered
same,total hepatic cholesterol,C57BL/6J mice [2]; normal C57BL/6J mice,slightly increased
same,reduced plasma cholesterol level,"LDLRKO mice [3]; LDL-receptor knockout mice, GH infusion",30-40%
same,total hepatic cholesterol,LDLRKO mice [3]; [7],slight reduction
same,total plasma triglycerides,LDLRKO mice [3]; [7],slight but not significant reduction
same,total plasma cholesterol,"LDLRKO mice [3]; LDLRKO mice, GH 1 mg/kg/d infusion, six days, first experiment",clearly reduced
same,reduction of total plasma cholesterol versus first experiment,LDLRKO mice [3]; [8],slightly less pronounced
same,"total plasma cholesterol and triglycerides, and total hepatic cholesterol versus first experiment",LDLRKO mice [3]; [8],practically identical results
same,lipoprotein triglycerides by FPLC size fraction,C57BL/6J mice [4],increased triglycerides within VLDL particles
same,reduction of lipoprotein cholesterol by FPLC size fraction,"LDLRKO mice [5]; LDLRKO mice, pooled plasma, first experiment (FIG. 2)",within all size fractions
same,reduction in lipoprotein triglycerides by FPLC size fraction,"LDLRKO mice [5]; LDLRKO mice, pooled plasma, first experiment (FIG. 3)",only within VLDL particles
same,plasma lipoprotein cholesterol by FPLC,LDLRKO mice [5]; repeated experiment (FIG. 5),"lowered plasma lipoprotein cholesterol, particularly within VLDL and LDL particles"
same,lipoprotein triglycerides by FPLC,LDLRKO mice [5]; repeated experiment (FIG. 6),not only reduced among VLDL particles but also within LDL and HDL particles
same,expression of LDL receptors (ligand blot of hepatic membranes),LDL receptors,not altered
same,increase of C7αOH activity,[6]; C57/BL6J mice,115%
same,increase of C7αOH activity,[6]; LDLRKO mice,46%
same,enzymatic activity of C7αOH (in words),"[6]; LDLRKO mice, GH infusion",stimulated; also recorded: normalized
same,enzymatic activity of C7αOH (in words),"[6]; normal mice, GH treatment",stimulated
same,increase of HMG CoA reductase activity,HMG CoA reductase; C57/BL6J mice,53%
same,increase of HMG CoA reductase activity,HMG CoA reductase; LDLRKO mice,113%
same,enzymatic activity of HMG CoA reductase (in words),"HMG CoA reductase; LDLRKO mice, GH infusion",increased the activity to the same level as found in normal C57BL/6J animals; also recorded: normalized
same,reduction in C7αOH mRNA level,C7αOH mRNA; C57/BL6J mice,50%
same,increase of C7αOH mRNA level,C7αOH mRNA; LDLRKO mice,170%
same,HMG CoA reductase mRNA levels,HMG CoA reductase mRNA; C57/BL6J mice,no effect
same,increase of HMG CoA reductase mRNA levels,HMG CoA reductase mRNA; LDLRKO mice,20%
same,reduction of plasma cholesterol,LDLRKO mice [1]; groups of 5,10%
same,reduction of plasma triglycerides,LDLRKO mice [1]; groups of 5,approx. 20%
